Results: US20250188059A1, “NOVEL COMPOUND AND USE THEREOF FOR INHIBITING CHECKPOINT KINASE 2” (ARUM THERAPEUTICS INC, priority 2022, published 2025)
Like-named read-outs stand apart in the source and are kept apart here.

How the values were obtained:
Chk1 kinase = Chk1 kinase (Homo sapiens (Human), UniProt O14757); assay: Chk1 kinase inhibitory activity (LanthaScreen TR-FRET); type: biochemical; details: graded
Experimental: (§1) The compounds of Examples 1 to 66 were diluted at various concentrations and transferred to a 384-well plate by 5 μl, and 10 μl of a mixed solution (2×) of Chk1 kinase (Thermo, P3040) or Chk2 kinase (Thermo, PV3367) and a substrate (Thermo, PV3508) was added to wells treated with the compounds. 5 μl of an ATP solution at a 4× concentration was added to the test well and reacted at room temperature for 1 hour. 20 μl of LanthaScreen Terbium-CREB p-Ser 133 antibody (Thermo, PV3542) was added to the reaction well and incubated at room temperature for 30 minutes. Conversion data was measured by an EnVision 2014 multi label reader (PerkinElmer). The activity for each concentration was determined by the ratio (FRET ratio=FR) of the value obtained by dividing the value at 520 nm by the value at 490 nm among the emission wavelength values for each wavelength (Em520/Em490). The results obtained for each concentration of the compounds were the average values obtained in two wells, and the IC50 values of the compounds were calculated using PRIZM software for analysis of the results. IC50 in Table 7 was graded as follows.

Chk2 kinase = Chk2 kinase (Homo sapiens (Human), UniProt O96017); assay: Chk2 kinase inhibitory activity (LanthaScreen TR-FRET); type: biochemical; details: graded
Experimental: as §1

[1] = tested on: human breast cancer cell line MCF-7; assay: Cancer cell growth inhibition test (CellTiter-Glo); type: cell-based; details: MCF-7, 72 hours
Experimental: The human breast cancer cell line MCF-7 was treated with trypsin and harvested. The number of cells was counted, and about 3000 cells/80 μl per well were inoculated into a 96 well plate (Corning) and then incubated in a 37° C. incubator for 24 hours. Thereafter, the example compounds were diluted in a culture solution at various concentrations, and each well was treated with 20 μl and stored in a cell culture incubator for 72 hours. In the case of the group administered in combination, the example compounds and cisplatin or doxorubicin were diluted in a culture solution at various concentrations, and each well was treated with 20 μl. After 72 hours, each well was treated with 30 μl of CellTiter-Glo solution (Promega), and the luminescence was read on a Victor3 multi label reader (PerkinElmer).
Relative viability (%)=(value of each test well/value of well treated with DMSO alone)×100
The results obtained for each concentration for each example compound were the average values obtained from three wells, and PRIZM software was used for analysis of the results.

[2] = Homo sapiens, MCF7, 72 h, graded, read-out: Celltiter glo analysis (IC50)

Sequence of Chk1 kinase (O14757 whole entry): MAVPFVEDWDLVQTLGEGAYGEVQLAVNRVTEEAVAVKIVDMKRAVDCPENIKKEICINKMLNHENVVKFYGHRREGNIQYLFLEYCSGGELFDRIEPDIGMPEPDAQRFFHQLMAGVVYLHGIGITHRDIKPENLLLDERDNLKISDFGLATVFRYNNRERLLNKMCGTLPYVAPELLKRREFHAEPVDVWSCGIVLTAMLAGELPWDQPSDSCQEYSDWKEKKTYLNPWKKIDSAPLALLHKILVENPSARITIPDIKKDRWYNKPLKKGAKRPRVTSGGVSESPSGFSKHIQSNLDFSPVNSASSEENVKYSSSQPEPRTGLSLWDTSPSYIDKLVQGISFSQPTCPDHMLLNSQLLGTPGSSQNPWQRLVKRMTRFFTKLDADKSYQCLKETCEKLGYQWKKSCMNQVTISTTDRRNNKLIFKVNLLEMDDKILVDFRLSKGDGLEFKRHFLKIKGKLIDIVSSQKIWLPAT
Sequence of Chk2 kinase (O96017 whole entry): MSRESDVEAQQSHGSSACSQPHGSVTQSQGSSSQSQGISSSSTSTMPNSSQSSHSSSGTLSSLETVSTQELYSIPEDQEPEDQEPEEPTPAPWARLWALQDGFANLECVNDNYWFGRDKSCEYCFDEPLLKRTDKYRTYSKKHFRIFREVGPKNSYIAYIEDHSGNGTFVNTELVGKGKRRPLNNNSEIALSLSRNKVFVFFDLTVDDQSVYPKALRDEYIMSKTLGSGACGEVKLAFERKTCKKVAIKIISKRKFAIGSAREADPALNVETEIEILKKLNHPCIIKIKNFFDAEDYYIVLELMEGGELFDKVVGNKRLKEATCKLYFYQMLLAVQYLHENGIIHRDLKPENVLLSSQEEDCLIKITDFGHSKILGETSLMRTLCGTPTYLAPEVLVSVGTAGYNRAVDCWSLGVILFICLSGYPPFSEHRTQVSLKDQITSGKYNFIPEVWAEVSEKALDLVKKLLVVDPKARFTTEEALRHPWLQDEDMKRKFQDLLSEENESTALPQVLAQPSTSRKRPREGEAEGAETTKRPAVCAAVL

Compound | IC50 (Chk1 kinase) | IC50 (Chk2 kinase) | IC50 [1, 2] | IC50 ([1]; Homo sapiens, MCF7, 72 h, alone, read-out: Administered alone (IC50)) | IC50 ([1]; combination with cisplatin, read-out: Administered in combination with cisplatin (IC50)) | IC50 ([1]; combination with doxorubicin, read-out: Administered in combination with doxorubicin (IC50))
Nc1ncc(-c2ccnc(-c3cnn(CC(F)(F)F)c3)c2)nc1C(=O)N[C@H]1CCCNC1 [Example 21, (S)-3-amino-N-(piperidin-3-yl)-6-(2-(1-(2,2,2-trifluoroethyl)-1H-pyrazol-4-yl)pyridin-4-yl)pyrazine-2-carboxamide] | 0.01 to 0.1 µM | ≤ 0.01 µM | 10 to 100 µM |  |  | 
N#CCn1cc(-c2cccc(-c3cnc(N)c(C(=O)N[C@@H]4CNCC[C@H]4O)n3)c2)cn1 [Example 25, 3-amino-6-(3-(1-(cyanomethyl)-1H-pyrazol-4-yl)phenyl)-N-((3R,4R)-4-hydroxypiperidin-3-yl)pyrazine-2-carboxamide] | > 1 µM | 0.01 to 0.1 µM | > 100 µM |  |  | 
N#CCn1cc(-c2cccc(-c3cnc(N)c(C(=O)N[C@@H]4CNC[C@@H](F)C4)n3)c2)cn1 [Example 26, 3-amino-6-(3-(1-(cyanomethyl)-1H-pyrazol-4-yl)phenyl)-N-((3S,5S)-5-fluoropiperidin-3-yl) pyrazine-2-carboxamide] | 0.1 to 1 µM | 0.01 to 0.1 µM | > 100 µM |  |  | 
N#CCn1cc(-c2cccc(-c3cnc(N)c(C(=O)N[C@H]4CCCNC4)n3)c2)cn1 [Example 27, (S)-3-amino-6-(3-(1-(cyanomethyl)-1H-pyrazol-4-yl)phenyl)-N-(piperidin-3-yl)pyrazine-2-carboxamide] | 0.01 to 0.1 µM | 0.01 to 0.1 µM | > 100 µM |  |  | 
CC(C)(O)Cn1cc(-c2cccc(-c3cnc(N)c(C(=O)N[C@@H]4CNCC[C@H]4O)n3)c2)cn1 [Example 28, 3-amino-6-(3-(1-(2-hydroxy-2-methylpropyl)-1H-pyrazol-4-yl)phenyl)-N-((3R,4R)-4-hydroxypiperidin-3-yl)pyrazine-2-carboxamide] | > 1 µM | ≤ 0.01 µM | > 100 µM |  |  | 
CC(C)(O)Cn1cc(-c2cccc(-c3cnc(N)c(C(=O)N[C@@H]4CNC[C@@H](F)C4)n3)c2)cn1 [Example 29, 3-amino-N-((3S,5S)-5-fluoropiperidin-3-yl)-6-(3-(1-(2-hydroxy-2-methylpropyl)-1H-pyrazol-4-yl)phenyl)pyrazine-2-carboxamide] | 0.01 to 0.1 µM | ≤ 0.01 µM | 10 to 100 µM |  |  | 
CC(C)(O)Cn1cc(-c2cccc(-c3cnc(N)c(C(=O)N[C@H]4CCCNC4)n3)c2)cn1 [Example 30, (S)-3-amino-6-(3-(1-(2-hydroxy-2-methylpropyl)-1H-pyrazol-4-yl)phenyl)-N-(piperidin-3-yl)pyrazine-2-carboxamide] | 0.01 to 0.1 µM | ≤ 0.01 µM | > 100 µM |  |  | 
Nc1ncc(-c2cc(-c3cnn(C4CC4)c3)ccc2F)nc1C(=O)N[C@H]1CCCNC1 [Example 31, (S)-3-amino-6-(5-(1-cyclopropyl-1H-pyrazol-4-yl)-2-fluorophenyl)-N-(piperidin-3-yl)pyrazine-2-carboxamide] | 0.1 to 1 µM | 0.01 to 0.1 µM | 10 to 100 µM |  |  | 
CC(C)(O)Cn1cc(-c2cc(-c3cnc(N)c(C(=O)N[C@@H]4CNCC(F)(F)C4)n3)c(F)cn2)cn1 [Example 32, (S)-3-amino-N-(5,5-difluoropiperidin-3-yl)-6-(5-fluoro-2-(1-(2-hydroxy-2-methylpropyl)-1H-pyrazol-4-yl)pyridin-4-yl)pyrazine-2-carboxamide] | > 1 µM | > 1 µM | 10 to 100 µM | 33.1 µM | 4.58 µM | 0.91 µM
CC(C)(O)Cn1cc(-c2cc(-c3cnc(N)c(C(=O)N[C@@H]4CNCC(F)(F)C4)n3)ccn2)cn1 [Example 33, (S)-3-amino-N-(5,5-difluoropiperidin-3-yl)-6-(2-(1-(2-hydroxy-2-methylpropyl)-1H-pyrazol-4-yl)pyridin-4-yl)pyrazine-2-carboxamide] | > 1 µM | 0.1 to 1 µM | 10 to 100 µM |  |  | 
CC(C)(O)Cn1cc(-c2ccc(F)c(-c3cnc(N)c(C(=O)N[C@@H]4CNC[C@@H](F)C4)n3)c2)cn1 [Example 35, 3-amino-6-(2-fluoro-5-(1-(2-hydroxy-2-methylpropyl)-1H-pyrazol-4-yl)phenyl)-N-((3S,5S)-5-fluoropiperidin-3-yl)pyrazine-2-carboxamide] | > 1 µM | 0.01 to 0.1 µM | 10 to 100 µM |  |  | 
CC(C)(O)Cn1cc(-c2ccc(F)c(-c3cnc(N)c(C(=O)N[C@@H]4CNCC(F)(F)C4)n3)c2)cn1 [Example 36, (S)-3-amino-N-(5,5-difluoropiperidin-3-yl)-6-(2-fluoro-5-(1-(2-hydroxy-2-methylpropyl)-1H-pyrazol-4-yl)phenyl)pyrazine-2-carboxamide] | > 1 µM | > 1 µM | 10 to 100 µM |  |  | 
Cc1ccc(-c2cnn(CC(C)(C)O)c2)cc1-c1cnc(N)c(C(=O)N[C@@H]2CNC[C@@H](F)C2)n1 [Example 37, 3-amino-N-((3S,5S)-5-fluoropiperidin-3-yl)-6-(5-(1-(2-hydroxy-2-methylpropyl)-1H-pyrazol-4-yl)-2-methylphenyl) pyrazine-2-carboxamide] | > 1 µM | 0.01 to 0.1 µM | > 100 µM |  |  | 
Cc1ccc(-c2cnn(CC(C)(C)O)c2)cc1-c1cnc(N)c(C(=O)N[C@@H]2CNCC(F)(F)C2)n1 [Example 38, (S)-3-amino-N-(5,5-difluoropiperidin-3-yl)-6-(5-(1-(2-hydroxy-2-methylpropyl)-1H-pyrazol-4-yl)-2-methylphenyl)pyrazine-2-carboxamide] | > 1 µM | > 1 µM | 10 to 100 µM |  |  | 
Nc1ncc(-c2nccc(-c3cnn(CC(F)(F)F)c3)n2)nc1C(=O)N[C@H]1CCCNC1 [Example 39, (S)-3-amino-N-(piperidin-3-yl)-6-(4-(1-(2,2,2-trifluoroethy)-1H-pyrazol-4-yl)pyrimidin-2-yl)pyrazine-2-carboxamide] | 0.1 to 1 µM | ≤ 0.01 µM | 10 to 100 µM |  |  | 
CC1(C)Cc2c(-c3cccc(-c4cnc(N)c(C(=O)N[C@H]5CCCNC5)n4)c3)cnn2C1 [Example 42, (S)-3-amino-6-(3-(5,5-dimethyl-5,6-dihydro-4H-pyrrolo[1,2-b]pyrazol-3-yl)phenyl)-N-(piperidin-3-yl) pyrazine-2-carboxamide] | 0.01 to 0.1 µM | ≤ 0.01 µM | 10 to 100 µM |  |  | 
CC1(C)Cc2c(-c3ccc(F)c(-c4cnc(N)c(C(=O)N[C@H]5CCCNC5)n4)c3)cnn2C1 [Example 43, (S)-3-amino-6-(5-(5,5-dimethyl-5,6-dihydro-4H-pyrrolo[1,2-b]pyrazol-3-yl)-2-fluorophenyl)-N-(piperidin-3-yl)pyrazine-2-carboxamide] | 0.1 to 1 µM | ≤ 0.01 µM | 10 to 100 µM |  |  | 
CC1(C)Cc2c(-c3ccc(F)c(-c4cnc(N)c(C(=O)N[C@@H]5CNC[C@@H](F)C5)n4)c3)cnn2C1 [Example 44, 3-amino-6-(5-(5,5-dimethyl-5,6-dihydro-4H-pyrrolo [1,2-b]pyrazol-3-yl)-2-fluorophenyl)-N-((3S,5S)-5-fluoropiperidin-3-yl)pyrazine-2-carboxamide] | ≤ 0.01 µM | 0.01 to 0.1 µM | ≤ 10 µM |  |  | 
CC1(C)Cc2c(-c3cccc(-c4cnc(N)c(C(=O)N[C@@H]5CNC[C@@H](F)C5)n4)c3)cnn2C1 [Example 45, 3-amino-6-(3-(5,5-dimethyl-5,6-dihydro-4H-pyrrolo[1,2-b]pyrazol-3-yl)phenyl)-N-((3S,5S)-5-fluoropiperidin-3-yl)pyrazine-2-carboxamide] | 0.1 to 1 µM | ≤ 0.01 µM | 10 to 100 µM |  |  | 
CC1(C)Cc2c(-c3ccc(F)c(-c4cnc(N)c(C(=O)N[C@H]5CCC6(CC6)NC5)n4)c3)cnn2C1 [Example 46, (S)-3-amino-6-(5-(5,5-dimethyl-5,6-dihydro-4H-pyrrolo[1,2-b]pyrazol-3-yl)-2-fluorophenyl)-N-(4-azaspiro[2.5]octan-6-yl)pyrazine-2-carboxamide] | > 1 µM | 0.01 to 0.1 µM | 10 to 100 µM |  |  | 
CC1(C)Cc2c(-c3cccc(-c4cnc(N)c(C(=O)N[C@@H]5CNCC(F)(F)C5)n4)c3)cnn2C1 [Example 59] | > 1 µM | 0.01 to 0.1 µM | ≤ 10 µM |  |  | 
CC1(C)Cc2c(-c3nccc(-c4cnc(N)c(C(=O)NC5CNC[C@@H](F)C5)n4)n3)cnn2C1 (stereo partly drawn) [Example 64, 3-amino-6-(2-(5,5-dimethyl-5,6-dihydro-4H-pyrrolo[1,2-b]pyrazol-3-yl)pyrimidin-4-yl)-N-((3S,5S)-5-fluoropiperidin-3-y)pyrazine-2-carboxamide] | > 1 µM | ≤ 0.01 µM | 10 to 100 µM |  |  | 
